Activity calls are given as the source filed them. No cut-off for these calls is given here.
Legend:
Aquifex aeolicus = test: Inhibition of [3H]leucine transport activity of LeuT in proteoliposomes by scintillation proximity assay
[1] = Displacement of [3H]leucine from Aquifex aeolicus His-LeuT expressed in Escherichia coli by scintillation proximity assay

| SMILES | Activity (Aquifex aeolicus) | IC50 [1] [µM] |
| --- | --- | --- |
| CNCCCN1c2ccccc2CCc2ccccc21 [DESIPRAMINE] | Active | 80 |
| CNCCC(Oc1ccc(C(F)(F)F)cc1)c1ccccc1 (stereo not given) [FLUOXETINE] | – | 858 |
| CN(C)CCCN1c2ccccc2CCc2ccccc21 [IMIPRAMINE] | – | 244 |
| CNCCC=C1c2ccccc2CCc2ccccc21 [NORTRIPTYLINE] | – | 75 |

— ChEMBL document CHEMBL1143765 (Science, 2007)
